Source: PubChem BioAssay (NCI)
Values joined by “and” are separate entries in the source; they are usually repeats but may differ in a detail not shown here. Identical values can stand only once.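 48-hour exposure; five concentrations; linearly interpolated endpoints. GI50 marks 50% less growth. At the TGI there is no net growth.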 *1 amine or outer side, *2 acyl side, *3 side chain or, on linkers, in order; H or OH if unused. Where a SMILES comes first, the peptide text is derived from it. [ ]: non-standard residue; d: D form. The star is where a group is joined. X12 = NCCCCC(N[*:1])C(=O)CN1CCCC1C(=O)[*:2]; Pentadecanoyl = CCCCCCCCCCCCCCC(=O)*

Columns and labels:
Assay in all cases: NCI tumour cell line growth inhibition, 48 h
[1] = tested on: MDA-MB-231 breast
[2] = tested on: LOX IMVI melanoma
[3] = tested on: HT29 colon
[4] = tested on: A498 renal
[5] = tested on: SK-OV-3 ovarian
[6] = tested on: EKVX NSCLC
[7] = tested on: BT-549 breast
[8] = tested on: OVCAR-5 ovarian
[9] = tested on: SR leukemia
[10] = tested on: OVCAR-4 ovarian

Molecule | TGI [1] | TGI [2] | TGI [3] | TGI [4] | TGI [5] | TGI [6] | TGI [7] | TGI [8] | TGI [9] | TGI [10] | GI50 [8] | GI50 [2] | GI50 [10] | GI50 [3] | GI50 [5] | GI50 [9] | GI50 [7] | GI50 [6] | GI50 [1] | GI50 [4]
CC1CC/C(=C\c2ccc(F)cc2)C2=C1C(c1ccc(F)cc1)NC(=S)N2 (centres undefined) | > 100 µM | > 100 µM | > 100 µM | 98.7 µM | > 100 µM | 79.3 µM | > 100 µM |  |  |  |  |  |  |  |  |  |  |  |  | 
COc1ccc(C(OCC2OC(n3ccc(Oc4c(F)c(F)c(F)c(F)c4F)nc3=O)CC2OP(OCCC#N)N(C(C)C)C(C)C)(c2ccccc2)c2ccc(OC)cc2)cc1 (centres undefined) | > 100 µM | > 100 µM | > 100 µM | > 100 µM | > 100 µM |  | > 100 µM | > 100 µM | > 100 µM |  |  |  |  |  |  |  |  |  |  | 
Cc1cc(S(=O)(=O)Nc2n[nH]c(N)n2)c(S)cc1Cl | > 10 µM | > 10 µM | > 10 µM | > 10 µM | > 10 µM | > 10 µM | > 10 µM | > 10 µM |  | > 10 µM |  |  |  |  |  |  |  |  |  | 
O=C(Nc1ccccc1C(=O)O)C(=Cc1ccccc1O)NC(=O)c1ccccc1 | > 100 µM | > 100 µM | > 100 µM | > 100 µM | > 100 µM | > 100 µM | > 100 µM | > 100 µM | > 100 µM |  |  |  |  |  |  |  |  |  |  | 
Cc1cc(=O)oc2c(CN(CCCl)CCCl)c(O)ccc12 | > 100 µM | > 100 µM | > 100 µM | > 100 µM |  | > 100 µM | 78.5 µM | > 100 µM | > 100 µM | > 100 µM |  |  |  |  |  |  |  |  |  | 
CCN(CC)CCC1(C(=O)OC)SCCc2ccc(C)cc21 (centres undefined) |  | > 100 µM |  | > 100 µM | > 100 µM | > 100 µM | > 100 µM | > 100 µM | > 100 µM | > 100 µM |  |  |  |  |  |  |  |  |  | 
COc1ccc(-c2nc3ncccn3c2-c2ccc(S(C)(=O)=O)cc2)cc1 | > 100 µM | > 100 µM | > 100 µM |  | > 100 µM |  | > 100 µM | > 100 µM | > 100 µM | > 100 µM |  |  |  |  |  |  |  |  |  | 
CC(=O)OCC12C(OC(C)=O)C[C@@H](C)C3(CC(c4ccoc4)OC3=O)C1CCC(OC(C)=O)C21CO1 (some centres undefined) | > 100 µM | > 100 µM | > 100 µM | > 100 µM | > 100 µM | > 100 µM | > 100 µM | > 100 µM |  | > 100 µM |  |  |  |  |  |  |  |  |  | 
Cc1nc2cccc(F)c2c(=O)n1-c1nnc(C2CC2)s1 | > 10 µM | > 10 µM | > 10 µM |  | > 10 µM | > 10 µM |  | > 10 µM | > 10 µM | > 10 µM |  |  |  |  |  |  |  |  |  | 
Oc1[nH]c2ccccc2c1N=NC(=S)NCc1ccccn1 | 20.8 µM | 15.3 µM | > 43 µM | 7.51 µM | 13.8 µM | 12.5 µM | 17.5 µM | 22.7 µM |  | 21 µM |  |  |  |  |  |  |  |  |  | 
H-KIFKKFKTIIKKVWRIFGRF-NH2 |  | > 100 µM | > 100 µM |  | 7.39 µM |  | > 100 µM | 4.28 µM | > 100 µM | 5.4 µM | 2.1 µM | 2.98 µM | 2.13 µM | 2.92 µM | 3.17 µM | 2.72 µM | 3.54 µM |  |  | 
O=c1cc(-c2ccccc2)[nH]c2c(F)ccc(F)c12 |  | > 100 µM | > 100 µM |  | > 100 µM |  |  | > 100 µM | 90.3 µM | > 100 µM |  |  |  |  |  |  |  |  |  | 
N#Cc1c(NC(=S)Nc2ccccc2)sc2c1CCCC2 | > 100 µM | > 100 µM | > 100 µM | > 100 µM |  | > 100 µM | > 100 µM | > 100 µM | > 100 µM | > 100 µM |  |  |  |  |  |  |  |  |  | 
COc1cccc2c1C(=O)c1c(O)c3c(c(O)c1C2=O)C[C@@](O)(C(=O)CO)CC3OC1CC(NCCCCC(OC(C)=O)OC(C)=O)C(O)C(C)O1 (some centres undefined) |  | 0.00829 µM and 0.0302 µM | 0.0125 µM | 0.0211 µM | > 1 µM | 0.0143 µM |  | > 1 µM | 0.0027 µM | 0.00449 µM and 0.00985 µM |  | 0.000488 µM |  | 0.00103 µM | 0.00567 µM |  |  | 0.00368 µM |  | 
CC(C)(C)C1=CC(O)(c2c3ccccc3c(C3(O)C=C(C(C)(C)C)C(=O)C(C(C)(C)C)=C3)c3ccccc23)C=C(C(C)(C)C)C1=O | > 100 µM | > 100 µM | > 100 µM | 0.65 µM | > 100 µM | > 100 µM | > 100 µM | > 100 µM |  | > 100 µM |  |  |  |  |  |  |  |  |  | 
N#Cc1nc(C(=O)c2ccccc2)oc1N | > 100 µM | > 100 µM | > 100 µM | > 100 µM | > 100 µM | > 100 µM |  | > 100 µM |  | > 100 µM |  |  |  |  |  |  |  |  |  | 
C/C(=N/NC(=O)c1ccccc1Nc1ccccc1C(=O)N/N=C(\C)c1ccc(C)cc1)c1ccc(C)cc1 | > 100 µM |  | > 100 µM | > 100 µM | > 100 µM | > 100 µM | > 100 µM | > 100 µM | > 100 µM | > 100 µM |  |  |  |  |  |  |  |  |  | 
CCCCCCCCCCCCCCC(=O)NC(CCCCN)C(=O)CN1CCCC1C(=O)NCC(=O)NC(Cc1ccccc1)C(=O)N1CCCC1C(=O)NC(CO)C(=O)NC(Cc1ccc(O)cc1)C(=O)NC(CCCCN)C(=O)NC(CC(C)C)C(=O)NC(CCCN=C(N)N)C(=O)N1CCCC1C(=O)NCC(N)=O (centres undefined) (Pentadecanoyl-[X12]GFPSYKLRPG-NH2; configuration not given here) | 32.5 µM |  | > 100 µM | > 100 µM | 43.4 µM | 60.5 µM | 59.6 µM | 44.4 µM | 50.8 µM | 87.2 µM | 18.7 µM |  | 34.8 µM | 36.9 µM | 23.5 µM | 16.2 µM | 29.6 µM | 25.9 µM | 16.7 µM | 40.6 µM
CC1CC2OC(=N)C1(C#N)C2(C#N)C#N (centres undefined) | 38.4 µM | 31 µM | 47.7 µM | 42 µM | > 100 µM | 51.1 µM |  | 48.5 µM | > 100 µM |  |  |  |  |  |  |  |  |  |  | 
Fc1sc2c(c1F)C1CCC2C1 (centres undefined) | > 100 µM | > 100 µM | > 100 µM | > 100 µM | > 100 µM | > 100 µM |  | > 100 µM |  | > 100 µM |  |  |  |  |  |  |  |  |  | 
O=C(CSCC(=O)N/N=C\c1cccc(Br)c1)N/N=C\c1cccc(Br)c1 | 26.2 µM | 23.5 µM | 66.7 µM |  | 40.6 µM | 63.7 µM | 48.2 µM | 33.6 µM | 66.1 µM | 69.9 µM |  |  |  |  |  |  |  |  |  | 
